Measured values as given in ChEMBL document CHEMBL3085704, “Methyl-thiazoles: a novel mode of inhibition with the potential to develop novel inhibitors targeting InhA in Mycobacterium tuberculosis” (J Med Chem, 2013).

Assays:
Type in all cases: functional
[1] = test system: Mycobacterium tuberculosis; test: Antitubercular activity against Mycobacterium tuberculosis H37Rv expressing inhA M103I mutant assessed as parasite growth inhibition after 7 days by Alamar Blue assay
[2] = test system: Mycobacterium tuberculosis; test: Antitubercular activity against Mycobacterium tuberculosis H37Rv expressing inhA M103L mutant assessed as parasite growth inhibition after 7 days by Alamar Blue assay
[3] = test system: Mycobacterium tuberculosis; test: Antitubercular activity against Mycobacterium tuberculosis H37Rv expressing inhA G96V mutant assessed as parasite growth inhibition after 7 days by Alamar Blue assay

| SMILES | MIC [1] | MIC [2] | MIC [3] |
| --- | --- | --- | --- |
| COc1c(N2C[C@@H]3CCCN[C@@H]3C2)c(F)cc2c(=O)c(C(=O)O)cn(C3CC3)c12 [MOXIFLOXACIN] | 0.12 µg/mL | 0.12 µg/mL | 0.12 µg/mL |
| Cc1csc([C@](C)(O)c2nnc(Nc3ccn(Cc4c(F)cccc4F)n3)s2)n1 | >25 µM | >25 µM | >25 µM |
| Cc1csc(C(C)(O)c2nnc(Nc3ncn(Cc4c(F)cccc4F)n3)s2)n1 (racemic) | >25 µM | >25 µM | >25 µM |
| CO[C@H]1/C=C/O[C@@]2(C)Oc3c(C)c(O)c4c(O)c(c(/C=N/N5CCN(C)CC5)c(O)c4c3C2=O)NC(=O)/C(C)=C\C=C\[C@H](C)[C@H](O)[C@@H](C)[C@@H](O)[C@@H](C)[C@H](OC(C)=O)[C@@H]1C [RIFAMPIN] | 0.007 µg/mL | 0.007 µg/mL | 0.01 µg/mL |
| NNC(=O)c1ccncc1 [ISONIAZID] | 0.06 µg/mL | 0.03 µg/mL | 0.06 µg/mL |
